Measurements taken from ChEMBL document CHEMBL1134412, “(4-Piperidin-1-yl)phenyl amides: potent and selective human beta(3) agonists” (J Med Chem, 2001).
pEC50, pKi: −log10 of the molar value.

What was measured:
[1] = target: T1, Beta-2 adrenergic receptor (Homo sapiens, UniProt P07550); assay: Increased cAMP levels of Chinese hamster ovary (CHO) cells expressing human beta 2 adrenergic receptors; type: functional, cell-based
Target sequence in this assay (P07550 whole entry): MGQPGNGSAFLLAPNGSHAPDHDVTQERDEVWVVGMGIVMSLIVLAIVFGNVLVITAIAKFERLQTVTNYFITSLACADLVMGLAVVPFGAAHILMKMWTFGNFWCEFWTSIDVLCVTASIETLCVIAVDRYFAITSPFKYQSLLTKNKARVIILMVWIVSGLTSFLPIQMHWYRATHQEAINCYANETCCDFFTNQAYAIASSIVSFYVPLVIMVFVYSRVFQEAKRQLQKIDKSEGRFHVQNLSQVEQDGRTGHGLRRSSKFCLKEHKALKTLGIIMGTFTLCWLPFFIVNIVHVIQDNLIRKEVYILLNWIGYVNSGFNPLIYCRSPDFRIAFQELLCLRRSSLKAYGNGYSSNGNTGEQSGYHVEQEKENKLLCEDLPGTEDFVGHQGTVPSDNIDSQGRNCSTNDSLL

[2] = target: T2, Beta-3 adrenergic receptor (Homo sapiens, UniProt P13945); assay: In vitro increase in cAMP levels in Chinese hamster ovary cells expressing the human cloned beta 3 Adrenergic receptor.; type: functional, cell-based
Target sequence in this assay (P13945 whole entry): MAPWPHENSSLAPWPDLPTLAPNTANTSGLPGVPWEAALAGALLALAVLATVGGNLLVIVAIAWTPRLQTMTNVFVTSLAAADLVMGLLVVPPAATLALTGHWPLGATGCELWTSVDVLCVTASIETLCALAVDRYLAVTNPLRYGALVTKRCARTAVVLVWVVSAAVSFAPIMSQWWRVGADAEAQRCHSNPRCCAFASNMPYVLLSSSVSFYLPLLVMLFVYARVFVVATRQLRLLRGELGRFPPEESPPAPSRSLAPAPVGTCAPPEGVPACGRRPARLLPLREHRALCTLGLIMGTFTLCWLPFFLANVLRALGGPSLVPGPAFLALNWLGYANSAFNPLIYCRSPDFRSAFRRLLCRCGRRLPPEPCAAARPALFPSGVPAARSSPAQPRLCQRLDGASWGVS

[3] = target: T3, Beta-1 adrenergic receptor (Homo sapiens, UniProt P08588); assay: Increased cAMP levels of Chinese hamster ovary (CHO) cells expressing human beta 1 Adrenergic receptor; type: functional, cell-based
Target sequence in this assay (P08588 whole entry): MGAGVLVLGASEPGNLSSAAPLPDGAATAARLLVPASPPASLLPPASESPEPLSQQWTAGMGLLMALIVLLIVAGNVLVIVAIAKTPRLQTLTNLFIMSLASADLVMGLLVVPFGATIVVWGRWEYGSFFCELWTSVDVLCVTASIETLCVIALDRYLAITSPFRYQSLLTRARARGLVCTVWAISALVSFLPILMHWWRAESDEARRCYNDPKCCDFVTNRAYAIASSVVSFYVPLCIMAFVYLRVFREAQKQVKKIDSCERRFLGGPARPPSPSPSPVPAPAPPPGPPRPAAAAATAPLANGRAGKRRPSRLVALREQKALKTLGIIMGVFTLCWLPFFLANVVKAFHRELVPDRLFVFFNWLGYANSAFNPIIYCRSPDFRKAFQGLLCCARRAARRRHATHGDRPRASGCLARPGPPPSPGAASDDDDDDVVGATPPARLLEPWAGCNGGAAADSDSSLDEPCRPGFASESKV

[4] = target: T2, Beta-3 adrenergic receptor; assay: Intrinsic activity to increase cAMP levels in Chinese hamster ovary (CHO) cells expressing the cloned human beta 3 Adrenergic receptor; type: cell-based
Target sequence in this assay (P13945 whole entry, looked up): as the sequence (P13945 whole entry) above

[5] = target: T1, Beta-2 adrenergic receptor; assay: Intrinsic activity to increase cAMP levels in Chinese hamster ovary (CHO) cells expressing the cloned human beta 2 adrenergic receptors; type: cell-based
Target sequence in this assay (P07550 whole entry, looked up): as the sequence (P07550 whole entry) above

[6] = target: T3, Beta-1 adrenergic receptor; assay: In vitro activity to increase cAMP levels in Chinese hamster ovary (CHO) cells expressing the cloned human beta 1 Adrenergic receptor; type: cell-based
Target sequence in this assay (P08588 whole entry): as the sequence (P08588 whole entry) above

[7] = target: T3, Beta-1 adrenergic receptor; assay: Intrinsic activity to increase cAMP levels in Chinese hamster ovary (CHO) cells expressing the cloned human beta 1 Adrenergic receptor; type: cell-based
Target sequence in this assay (P08588 whole entry, looked up): as the sequence (P08588 whole entry) above

[8] = target: T2, Beta-3 adrenergic receptor; assay: Compound was tested for increased thermogenesis using beta-3 human transgenic mice
Target sequence in this assay (P13945 whole entry, looked up): as the sequence (P13945 whole entry) above

[9] = target: T3, Beta-1 adrenergic receptor; assay: Inhibition of I-iodocyanopindolol binding to human beta 1 adrenergic receptors
Target sequence in this assay (P08588 whole entry): as the sequence (P08588 whole entry) above

[10] = target: T1, Beta-2 adrenergic receptor
Target sequence in this assay (P07550 whole entry): as the sequence (P07550 whole entry) above
Description: Inhibition of I-iodocyanopindolol binding to human beta 2 adrenergic receptors

SMILES	pEC50 [1]	pEC50 [2]	pEC50 [3]	IA [4]	IA [5]	pEC50 [6]	IA [7]	Thermogenesis [8] [%]	pKi [9]	pKi [10]
CCOC(=O)CNC(=O)c1ccc(N2CCC(NC[C@H](O)c3ccc(O)c(NS(C)(=O)=O)c3)CC2)cc1	5.49	7.82	5.35							
CCCCN(c1ccc(N2CCC(NC[C@H](O)c3ccc(O)c(NS(C)(=O)=O)c3)CC2)cc1)S(=O)(=O)CC(=O)O	5.30	8.40		1	0.45	5.70	0.51			
CCCCN(C(=O)CC(=O)O)c1ccc(N2CCC(NC[C@H](O)c3ccc(O)c(NS(C)(=O)=O)c3)CC2)cc1	7.22	8.05	7.40					35	< 4.00	< 4.00
CS(=O)(=O)Nc1cc([C@@H](O)CNC2CCN(c3ccc(C(N)=O)cc3)CC2)ccc1O	6.57	7.70	5.92							
CC(C)[C@H](NC(=O)c1ccc(N2CCC(NC[C@H](O)c3ccc(O)c(NS(C)(=O)=O)c3)CC2)cc1)C(=O)O	< 5.00	7.59	< 5.00						< 4.00	5.44
CS(=O)(=O)Nc1cc([C@@H](O)CNC2CCN(c3ccc(CC(=O)O)cc3)CC2)ccc1O		6.57								
CS(=O)(=O)Nc1cc([C@@H](O)CNC2CCN(c3ccc(C(=O)N[C@@H](CCC(=O)O)C(=O)O)cc3)CC2)ccc1O		7.04								
CS(=O)(=O)Nc1cc([C@@H](O)CNC2CCN(c3ccc(C(=O)N4CCC[C@H]4C(=O)O)cc3)CC2)ccc1O	7.70									
CS(=O)(=O)Nc1cc([C@@H](O)CNC2CCN(c3ccc(C(=O)O)cc3)CC2)ccc1O	< 4.30	6.66				4.31				
CS(=O)(=O)Nc1cc([C@@H](O)CNC2CCN(c3ccc(C(=O)N[C@@H](Cc4ccccc4)C(=O)O)cc3)CC2)ccc1O	5.82		4.36						< 4.00	6.32
CS(=O)(=O)Nc1cc([C@@H](O)CNC2CCN(c3ccc(C(=O)NCCC(=O)O)cc3)CC2)ccc1O		6.59								
CS(=O)(=O)Nc1cc([C@@H](O)CNC2CCN(c3ccc(CCC(=O)O)cc3)CC2)ccc1O	5.33	7.41	5.01							
CCCCN(CC(=O)O)C(=O)c1ccc(N2CCC(NC[C@H](O)c3ccc(O)c(NS(C)(=O)=O)c3)CC2)cc1	4.98	7.44	< 6.00							
CCCCCCNC(=O)Nc1ccc(S(=O)(=O)Nc2ccc(CCNC[C@H](O)COc3ccc(O)cc3)cc2)cc1 [L-755507]	7.70					6.48		28	6.24	6.80
CS(=O)(=O)Nc1cc([C@@H](O)CNC2CCN(c3ccc(C(=O)NCC(=O)O)cc3)CC2)ccc1O	7.40	7.22	7.30					51	< 4.00	4.94
CC(C)C[C@H](NC(=O)c1ccc(N2CCC(NC[C@H](O)c3ccc(O)c(NS(C)(=O)=O)c3)CC2)cc1)C(=O)O	7.10	8.10	7.22					53	< 4.00	5.47
CS(=O)(=O)Nc1cc([C@@H](O)CNC2CCN(c3ccc(COCC(=O)O)cc3)CC2)ccc1O	5.22	7.18	5.80							
CS(=O)(=O)Nc1cc([C@@H](O)CNC2CCN(c3ccc(NC(=O)CC(=O)O)cc3)CC2)ccc1O	6.05	6.89	7.00							
